A short description of one series: Plasma stability. The class given is in vitro ADME. The following applies: mouse, 37° C. On the procedure:
Compound 2 (20 μM) was incubated in blank mouse plasma at 37° C. and aliquots were taken at specific time points and quenched with two volumes of acetonitrile containing internal standard. Samples were centrifuged and analyzed by reverse-phase UPLC.

A further series deals with T7 transcription. Nature of the series: In vitro transcription assay (TranscriptAid T7 kit). The class given is biochemical. An excerpt:
For in vitro translation, the E. coli S30 Extract System for Circular DNA was used to set up the reactions using plasmid pCP19 containing the lacZ gene for β-galactosidase. Reaction mixtures were supplemented with two-fold dilutions of antibiotic 2 and the β-Galactosidase Enzyme Assay System with Reporter Lysis Buffer was used to quantify the amount of β-galactosidase translated by measuring absorbance at 420 nm. For in vitro transcription, a TranscriptAid T7 High Yield Transcription kit was used with a pET24a/dacB DNA construct under the T7 promoter. The purified plasmid was linearized using the restriction endonuclease XhoI and then purified according to the manufacturer's instructions. A series of samples were prepared and supplemented with two-fold dilutions of antibiotic 2. Samples were analyzed by running on a denaturing 1% formaldehyde agarose gel and stained with ethidium bromide to visualize RNA. Intensities of the bands were quantified and compared to the control to determine the amount of transcription occurring in the presence of 2.

SMILES strings stand for the structures.

By half-life is commonly meant the time in which the quantity being followed falls by half. Lower therefore signals rapid decline. In “Plasma stability”, `N#Cc1ccc(/C=C/c2nc3ccccc3c(=O)n2-c2cccc(C(=O)O)c2)cc1.[Na]` [Compound 2, Sodium (E)-3-(3-carboxyphenyl)-2-(4-cyanostyryl)quinazolin-4(3H)-one] gave a half-life at 20 μM of 5.88 days. Further, the “Inhibition of in vitro transcription” value with T7 transcription is recorded as “did not show any inhibition”.

The values above are taken from patent US10329262B2, “Quinazolinone antibiotics” (priority 2013, dated 2019).
